The source of these data is patent US11439707B2, “Hypocrellin derivative substituted both in a peri-position and in 2-position by amino, preparation method, and application thereof” (priority 2017, dated 2022).

Series [1] in a line: absorption spectrum (maximum absorption wavelength, molar extinction coefficient). The format is physicochemical.
The nature of series [2]: singlet oxygen efficiency test, reference rose bengal. The format is physicochemical.

For `COc1c(O)c2c(=O)cc(OC)c3c4c(OC)cc(=O)c5c(NCC(=O)O)c(NCC(=O)O)c6c(c(c1C(C(C)=O)C(C)=C6)c23)c54` (stereo not drawn) [HB-7a], in series [1], the maximum absorption wavelength is reported as 620 nm and the molar extinction coefficient was 26,500 M^−1cm^−1. This compound registered a singlet oxygen yield in series [2] of 28%.

Take `COc1c2c3c4c(c(NCc5cccc[n+]5CCCC(=O)O)c(=O)c5c(O)cc(OC)c(c6c(OC)cc(NCc7cccc[n+]7CCCC(=O)O)c(c1=O)c63)c54)C=C(C)C2C(C)=O` (stereo not drawn) [HB-38d-N—COOH]: in series [1], the maximum absorption wavelength stood at 626 nm and the molar extinction coefficient was 21,000 M^−1cm^−1. In addition, the singlet oxygen yield in series [2] is 20%.

On to `COCCOC(=O)C1CCC(CNc2c(NCC3CCC(C(=O)OCCOC)CC3)c3c(=O)cc(OC)c4c5c(OC)cc(=O)c6c(O)c(OC)c7c(c(c2C=C(C)C7)c34)c65)CC1` (stereo not drawn) [HC-13a-PEG1], for which, in series [1], the maximum absorption wavelength was 622 nm and the molar extinction coefficient was 30,000 M^−1cm^−1. This compound displayed a singlet oxygen yield in series [2] of 32%.

In the case of `COc1c2c3c4c(c(NCCOCCO)c(=O)c5c(O)cc(OC)c(c6c(OC)cc(NCCOCCO)c(c1=O)c63)c54)C=C(C)C2C(C)=O` (stereo not drawn) [HB-1d], in series [1], the maximum absorption wavelength amounted to 622 nm and the molar extinction coefficient is given as 30,000 M^−1cm^−1. This compound had a singlet oxygen yield in series [2] of 35%.

Turning to `COCCOCCOCCOCCOCCOCCOC(=O)CCCNc1c2c3c4c(c(OC)c(=O)c5c(O)cc(OC)c(c6c(OC)cc(NCCCC(=O)OCCOCCOCCOCCOCCOCCOC)c(c1=O)c63)c54)C(C(C)=O)C(C)=C2` (stereo not drawn) [HB-8c-PEG6], in series [1], the maximum absorption wavelength worked out at 630 nm and the molar extinction coefficient is 32,500 M^−1cm^−1. The compound also registered a singlet oxygen yield in series [2] of 34%.

Take `COCCOCCOCCOCCOCCOCCOCCOCCOCCOCCOCCOCCOC(=O)CCCCCNc1c2c3c4c(c(OC)c(=O)c5c(NCCCCCC(=O)OCCOCCOCCOCCOCCOCCOCCOCCOCCOCCOCCOCCOC)cc(OC)c(c6c(OC)cc(O)c(c1=O)c63)c54)CC(C)=C2` [HC-9d-PEG12]: in series [1], the maximum absorption wavelength was determined as 625 nm and the molar extinction coefficient is listed as 31,500 M^−1cm^−1. Further, the singlet oxygen yield in series [2] is 32%.

For `COCCOCCOCCOCCOCCOCCOCCOCCOCCOCCOCCOCCOCCN1CCC(CNc2c3c4c5c(c(OC)c(=O)c6c(NCC7CCN(CCOCCOCCOCCOCCOCCOCCOCCOCCOCCOCCOCCOCCOC)CC7)cc(OC)c(c7c(OC)cc(O)c(c2=O)c74)c65)C(C(C)=O)C(C)=C3)CC1` (stereo not drawn) [HB-32d-PEG12], in series [1], the maximum absorption wavelength worked out at 632 nm and the molar extinction coefficient is 31,500 M^−1cm^−1. This compound also displayed a singlet oxygen yield in series [2] of 33%.

Consider `COc1c2c3c4c(c(NC(CS)C(=O)O)c(=O)c5c(O)cc(OC)c(c6c(OC)cc(NC(CS)C(=O)O)c(c1=O)c63)c54)C=C(C)C2C(C)=O` (stereo not drawn) [HB-25d], for which, in series [1], the maximum absorption wavelength amounted to 630 nm and the molar extinction coefficient was 20,500 M^−1cm^−1. In addition, the singlet oxygen yield in series [2] was found to be 18%.

Turning to `COc1c2c3c4c(c(NCCNCCOCCOCCOCCOCCO)c(=O)c5c(NCCNCCOCCOCCOCCOCCO)cc(OC)c(c6c(OC)cc(O)c(c1=O)c63)c54)C=C(C)C2C(C)=O` (stereo not drawn) [HB-5c-PEG4], in series [1], the maximum absorption wavelength was 628 nm and the molar extinction coefficient is reported as 31,500 M^−1cm^−1. Also, the singlet oxygen yield in series [2] worked out at 35%.

Consider `COc1c2c3c4c(c(NCC[N+]56CC[N+](C)(CC5)CC6)c(=O)c5c(O)cc(OC)c(c6c(OC)cc(NCC[N+]78CC[N+](C)(CC7)CC8)c(c1=O)c63)c54)C=C(C)C2C(C)=O` (stereo not drawn) [HB-41d], for which, in series [1], the maximum absorption wavelength is 625 nm and the molar extinction coefficient is given as 30,500 M^−1cm^−1. In addition, in series [2], the singlet oxygen yield is given as 28%.

Turning to `COc1c2c3c4c(c(NC5(CO)CC5)c(=O)c5c(O)cc(OC)c(c6c(OC)cc(NC7(CO)CC7)c(c1=O)c63)c54)C=C(C)C2C(C)=O` (stereo not drawn) [HB-35d], in series [1], the maximum absorption wavelength is 621 nm and the molar extinction coefficient is 31,500 M^−1cm^−1. In addition, the singlet oxygen yield in series [2] amounted to 30%.

`COc1c(O)c2c(=O)cc(OC)c3c4c(OC)cc(=O)c5c(NCC6CCC(C(=O)NCCS(=O)(=O)O)CC6)c(NCC6CCC(C(=O)NCCS(=O)(=O)O)CC6)c6c(c(c1CC(C)=C6)c23)c54` (stereo not drawn) [HC-13a-C2-SO3H]: in series [1], the maximum absorption wavelength is reported as 622 nm and the molar extinction coefficient is 31,000 M^−1cm^−1. In addition, the singlet oxygen yield in series [2] was 32%.

Take `COc1c(NCc2ccccn2)c2c(=O)cc(OC)c3c4c(OC)cc(=O)c5c(O)c(NCc6ccccn6)c6c(c(c1C(C(C)=O)C(C)=C6)c23)c54` (stereo not drawn) [HB-38b]: in series [1], the maximum absorption wavelength was 621 nm and the molar extinction coefficient is 18,500 M^−1cm^−1. This compound gave a singlet oxygen yield in series [2] of 16%.

`COc1c2c3c4c(c(NC(CC(=O)O)C(=O)O)c(=O)c5c(NC(CC(=O)O)C(=O)O)cc(OC)c(c6c(OC)cc(O)c(c1=O)c63)c54)C=C(C)C2C(C)=O` (stereo not drawn) [HB-27c]: in series [1], the maximum absorption wavelength came to 625 nm and the molar extinction coefficient is given as 21,500 M^−1cm^−1. This compound gave a singlet oxygen yield in series [2] of 21%.

Consider `COCCOC(=O)C1CCC(Nc2c(NC3CCC(C(=O)OCCOC)CC3)c3c(=O)cc(OC)c4c5c(OC)cc(=O)c6c(O)c(OC)c7c(c(c2C=C(C)C7C(C)=O)c34)c65)CC1` (stereo not drawn) [HB-14a-PEG1], for which, in series [1], the maximum absorption wavelength was determined as 622 nm and the molar extinction coefficient is 30,500 M^−1cm^−1. Also, the singlet oxygen yield in series [2] is recorded as 32%.

`COc1c2c3c4c(c(NCCNCCOCCO)c(=O)c5c(O)c(Br)c(OC)c(c6c(OC)cc(NCCNCCOCCO)c(c1=O)c63)c54)C=C(C)C2C(C)=O` (stereo not drawn) [HB-5d-Br-PEG1]: in series [1], the maximum absorption wavelength came out at 624 nm and the molar extinction coefficient is 29,500 M^−1cm^−1. For the same compound, the singlet oxygen yield in series [2] is listed as 32%.

In the case of `COCCOCCOCCOCCOC(=O)C1CCC(CNc2c(O)c3c(=O)cc(OC)c4c5c(OC)cc(=O)c6c(NCC7CCC(C(=O)OCCOCCOCCOCCOC)CC7)c(OC)c7c(c(c2C=C(C)C7)c34)c65)CC1` (stereo not drawn) [HC-13b-PEG4], in series [1], the maximum absorption wavelength is 624 nm and the molar extinction coefficient is 30,000 M^−1cm^−1. This compound also displayed a singlet oxygen yield in series [2] of 32%.

`COCCOCCOCCOCCOCCOCCOCCOCCOCCOCCOCCOCCOCCOCCOCCOCCOC(=O)C1CCC(CNc2c3c4c5c(c(OC)c(=O)c6c(NCC7CCC(C(=O)OCCOCCOCCOCCOCCOCCOCCOCCOCCOCCOCCOCCOCCOCCOCCOCCOC)CC7)cc(OC)c(c7c(OC)cc(O)c(c2=O)c74)c65)C(C(C)=O)C(C)=C3)CC1` (stereo not drawn) [HB-13d-PEG16]: in series [1], the maximum absorption wavelength was found to be 624 nm and the molar extinction coefficient is reported as 30,500 M^−1cm^−1. The singlet oxygen yield in series [2] came out at 33%.

For `COc1c2c3c4c(c(NCC(=O)O)c(=O)c5c(O)cc(OC)c(c6c(OC)cc(NCC(=O)O)c(c1=O)c63)c54)C=C(C)C2` [HC-7d], in series [1], the maximum absorption wavelength was 626 nm and the molar extinction coefficient is reported as 26,000 M^−1cm^−1. The singlet oxygen yield in series [2] came to 25%.

Turning to `COc1c2c3c4c(c(NCCO)c(=O)c5c(O)cc(OC)c(c6c(OC)cc(NCCO)c(c1=O)c63)c54)C=C(C)C2` [HC-2d], in series [1], the maximum absorption wavelength was 625 nm and the molar extinction coefficient was 28,500 M^−1cm^−1. In series [2], this compound had a singlet oxygen yield of 34%.

On to `COc1c2c3c4c(c(NC(C(=O)O)C(C)C)c(=O)c5c(O)cc(OC)c(c6c(OC)cc(NC(C(=O)O)C(C)C)c(c1=O)c63)c54)C=C(C)C2C(C)=O` (stereo not drawn) [HB-22d], for which, in series [1], the maximum absorption wavelength came out at 625 nm and the molar extinction coefficient is recorded as 21,500 M^−1cm^−1. Also, the singlet oxygen yield in series [2] was 22%.

For `CCNc1c2c3c4c(c(OC)c(=O)c5c(O)cc(OC)c(c6c(OC)cc(NC7CCCC7)c(c1=O)c63)c54)C(C(C)=O)C(C)=C2` (stereo not drawn) [HB-44c], in series [1], the maximum absorption wavelength was determined as 624 nm and the molar extinction coefficient was 21,000 M^−1cm^−1. The same compound gave a singlet oxygen yield in series [2] of 20%.

Take `COC(=O)C1CCC(CNc2c(NCC3CCC(C(=O)OC)CC3)c3c(=O)cc(OC)c4c5c(OC)cc(=O)c6c(O)c(OC)c7c(c(c2C=C(C)C7C(C)=O)c34)c65)CC1` (stereo not drawn) [HB-13a-AcE]: in series [1], the maximum absorption wavelength is 625 nm and the molar extinction coefficient is given as 27,000 M^−1cm^−1. In series [2], this compound came in with a singlet oxygen yield of 25%.

Consider `COc1c(O)c2c(=O)cc(OC)c3c4c(OC)cc(=O)c5c(NC(CS)C(=O)O)c(NC(CS)C(=O)O)c6c(c(c1C(C(C)=O)C(C)=C6)c23)c54` (stereo not drawn) [HB-25a], for which, in series [1], the maximum absorption wavelength came to 625 nm and the molar extinction coefficient was 21,500 M^−1cm^−1. Besides, the singlet oxygen yield in series [2] is reported as 18%.

For `COc1c2c3c4c(c(NC(CCC(=O)O)C(=O)O)c(=O)c5c(NC(CCC(=O)O)C(=O)O)cc(OC)c(c6c(OC)cc(O)c(c1=O)c63)c54)C=C(C)C2C(C)=O` (stereo not drawn) [HB-28c], in series [1], the maximum absorption wavelength was found to be 625 nm and the molar extinction coefficient is on record as 21,500 M^−1cm^−1. The singlet oxygen yield in series [2] is given as 22%.

As for `COc1c(NCCC2CCC(O)CC2)c2c(=O)cc(OC)c3c4c(OC)cc(=O)c5c(O)c(NCCC6CCC(O)CC6)c6c(c(c1C(C(C)=O)C(C)=C6)c23)c54` (stereo not drawn) [HB-18b], in series [1], the maximum absorption wavelength was 621 nm and the molar extinction coefficient was 24,500 M^−1cm^−1. In series [2], this compound showed a singlet oxygen yield of 21%.

Turning to `COc1c2c3c4c(c(NC(CC(=O)O)C(=O)O)c(=O)c5c(O)cc(OC)c(c6c(OC)cc(NC(CC(=O)O)C(=O)O)c(c1=O)c63)c54)C=C(C)C2C(C)=O` (stereo not drawn) [HB-27d], in series [1], the maximum absorption wavelength is reported as 620 nm and the molar extinction coefficient is reported as 21,500 M^−1cm^−1. Also, in series [2], the singlet oxygen yield was determined as 18%.

For `COc1c2c3c4c(c(NC5CCCC(C(=O)O)C5)c(=O)c5c(NC6CCCC(C(=O)O)C6)cc(OC)c(c6c(OC)cc(O)c(c1=O)c63)c54)C=C(C)C2C(C)=O` (stereo not drawn) [HB-15c], in series [1], the maximum absorption wavelength is 621 nm and the molar extinction coefficient is 28,000 M^−1cm^−1. In series [2], the singlet oxygen yield is on record as 26%.

Turning to `COCCOCCOCCOCCOCCOCCOCCOCCOC(=O)C1CCC(CNc2c3c4c5c(c(OC)c(=O)c6c(O)cc(OC)c(c7c(OC)cc(NCC8CCC(C(=O)OCCOCCOCCOCCOCCOCCOCCOCCOC)CC8)c(c2=O)c74)c65)CC(C)=C3)CC1` (stereo not drawn) [HC-13c-PEG8], in series [1], the maximum absorption wavelength is on record as 628 nm and the molar extinction coefficient is recorded as 32,500 M^−1cm^−1. In series [2], the singlet oxygen yield is reported as 38%.
